One assay addresses NCL (Homo sapiens, UniProt P19338). Briefly: Double-immunofluorescence confocal microscopy with anti-NCL antibody. The assay is classed as cell-based. The conditions noted are these: 5 μmol/l, 1 h of incubation. Also on record: GFP-NCL (residues 1-710); expressed in transfected cells; host or cells: HEK293T. On the procedure: FIGS. 11A and 11B show the results of fluorescence confocal microscopy of multiple cancer and normal cells. […] Merge represents AGM-330-FITC, NCL, and nuclear staining by DAPI. AGM-330-FITC represents FITC-conjugated AGM-330. Scale bar is 20 μm. […] Here, plasma membrane, cytosol and nuclear NCL were immunoblotted using anti-NCL antibody. […] Here, MDA-MB-231 cells were transfected for 48 hours. Then, 5 μmol/l of AGM-330-FITC was added for 2 hours. Cells were washed twice with PBS and fixed with 4% paraformaldehyde. Fluorescence was observed using a fluorescent confocal microscope. AGM-330-FITC is FITC-conjugated AGM-330, and the scale bar is 20 μm. […] FIGS. 11G and 11H show in vivo fluorescence images of mice 30 min, 1 h, 6 h, and 24 h after intravenous injections of 10 nmol free Alexa680 (FIG. 11G) or 10 nmol AGM-330-Alexa680 (FIG. 11H) in MDA-MB-231-luc tumor-bearing mice. Here, fluorescence images of the major organs including the heart, spleen, lung, brain, liver, kidney, and tumors were removed from mice with different treatments. […] FIGS. 11I and 11J are graphs showing the average radiant efficiency of Alexa680-associated fluorescence from live imaging of three animals in tumors (FIG. 11I) and different organs (FIG. 11J).
The present inventors evaluated the specificity of AGM-330 to NCL with cell binding assays against different cell lines using fluorescence microscopy. […]

For assay [1], the system named is MCF-7, MDA-MB-231, HT-29, and HCT-116. Put plainly: FACS binding of AGM-330-FITC to cancer cells. The assay is classed as cell-based, human. The conditions noted are these: 2 h, 37° C., serum-free medium. (In general: A flow cytometer gives signals particle by particle.)
A further assay deals with MCF-10A and CCD-18Co. Briefly: FACS binding of AGM-330-FITC to normal cells. The assay is classed as cell-based, human. Conditions: 2 h of incubation, versus cancer cells.
The test system of a further assay is HCT-116. Put plainly: Cytotoxicity of AGM-330-CPP fusion peptides. The assay is classed as cell-based, Human. The conditions noted are these: HCT-116, fusion peptide alone, Example 11.
The next assay concerns MCF-7. Put plainly: Cytotoxicity of AGM-330-CPP fusion peptides. The conditions noted are these: MCF-7, fusion peptide alone, Example 11. In kind it is cell-based, Human.
Assay [2] has as its target T1, recombinant nucleolin protein (UniProt P19338 1-710, limits assumed).
T1 construct: also called recombinant NCL; NCL
Briefly: SPR (Biacore T-200), recombinant NCL immobilised on a CM5 chip, AGM-330 20 nM to 2.5 µM as analyte. The method, then: (§1) The SPR sensorgrams shown are from an experiment that is representative of a set of three separate experiments using different sensor chips with similar results. Recombinant NCL was immobilized onto a CM5 sensor chip. Various concentrations of AGM-330 (20 nM to 2.5 µM) were incubated with immobilized NCL and analyzed on a Biacore T-200 apparatus.
(§2) Binding affinity was tested by SPR (surface plasmon resonance) spectroscopy (Biacore T-200). The recombinant nucleolin protein was immobilized on the CM5 sensorchip, and the treated with AGM-330 at various concentrations (20 nM to 2.5 µM). The sensogram for each sample was analyzed to determine the KD value.
Background: Surface plasmon resonance follows binding to a sensor surface in real time, without labels.

Assay [3] has as its target T1, recombinant nucleolin protein. Briefly: SPR (Biacore T-200), recombinant NCL immobilised on a CM5 chip, AGM-330 at 20 nM to 2.5 uM. The method, then:
as §1, §2

Ends that are not written are not given here.

T1 sequence (P19338 whole entry): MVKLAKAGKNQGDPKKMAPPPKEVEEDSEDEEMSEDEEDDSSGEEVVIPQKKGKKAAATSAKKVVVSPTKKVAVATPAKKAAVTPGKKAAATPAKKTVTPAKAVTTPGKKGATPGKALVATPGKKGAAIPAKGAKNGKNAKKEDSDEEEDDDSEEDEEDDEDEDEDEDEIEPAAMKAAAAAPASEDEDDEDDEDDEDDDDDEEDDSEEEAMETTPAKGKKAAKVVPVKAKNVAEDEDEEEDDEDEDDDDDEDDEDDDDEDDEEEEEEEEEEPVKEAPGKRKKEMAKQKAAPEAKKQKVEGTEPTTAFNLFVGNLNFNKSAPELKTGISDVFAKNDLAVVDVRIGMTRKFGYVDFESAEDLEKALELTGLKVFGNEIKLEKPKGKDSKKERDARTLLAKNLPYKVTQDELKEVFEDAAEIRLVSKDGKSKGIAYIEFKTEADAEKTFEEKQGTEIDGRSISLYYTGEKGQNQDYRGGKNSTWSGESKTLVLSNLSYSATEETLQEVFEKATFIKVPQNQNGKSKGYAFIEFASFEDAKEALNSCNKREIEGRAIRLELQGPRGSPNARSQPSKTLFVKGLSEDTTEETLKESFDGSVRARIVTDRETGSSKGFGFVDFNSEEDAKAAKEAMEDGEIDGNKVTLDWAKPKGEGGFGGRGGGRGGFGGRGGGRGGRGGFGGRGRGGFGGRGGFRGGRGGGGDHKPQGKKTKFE
NCL, sequence (P19338 whole entry, the tested form may be a part): as the sequence (P19338 whole entry) above

In the case of “AGM-330-FITC (RHGAMVYLK; also: FITC-labelled (site not given here))”, the “colocalization with NCL staining” value in the assay with NCL is “overlap between NCL and AGM-330-FITC”. Further, the “cancer cell binding (increase in MFI relative to untreated cells)” value in assay [1] is “significant cancer cell binding”. Besides, the “binding to normal cells (MFI)” value in the assay on MCF-10A and CCD-18Co is “significant decrease in binding”.
Broadly, the IC50 is the concentration needed to halve the response being measured. Read a low IC50 as greater potency in that assay. On to `CC[C@H](C)[C@H](NC(=O)[C@H](CCCNC(=N)N)NC(=O)[C@H](CC(C)C)NC(=O)[C@@H](NC(=O)[C@H](CCCNC(=N)N)NC(=O)[C@H](CCSC)NC(=O)[C@@H](NC(=O)[C@@H](N)CCCNC(=N)N)[C@@H](C)CC)[C@@H](C)CC)C(=O)N[C@@H](CC(C)C)C(=O)N[C@@H](CCCCN)C(=O)N[C@@H](CC(C)C)C(=O)N[C@@H](C)C(=O)N[C@@H](CCCNC(=N)N)C(=O)NCCCC[C@H](NC(=O)[C@H](CCCNC(=N)N)NC(=O)[C@H](C)NC(=O)[C@H](CC(C)C)NC(=O)[C@H](CCCCN)NC(=O)[C@H](CC(C)C)NC(=O)[C@@H](NC(=O)[C@H](CCCNC(=N)N)NC(=O)[C@H](CC(C)C)NC(=O)[C@@H](NC(=O)[C@H](CCCNC(=N)N)NC(=O)[C@H](CCSC)NC(=O)[C@@H](NC(=O)[C@@H](N)CCCNC(=N)N)[C@@H](C)CC)[C@@H](C)CC)[C@@H](C)CC)C(=O)NCCCC[C@H](NC(=O)[C@H](CCCCNC(=O)[C@H](CCCNC(=N)N)NC(=O)[C@H](C)NC(=O)[C@H](CC(C)C)NC(=O)[C@H](CCCCN)NC(=O)[C@H](CC(C)C)NC(=O)[C@@H](NC(=O)[C@H](CCCNC(=N)N)NC(=O)[C@H](CC(C)C)NC(=O)[C@@H](NC(=O)[C@H](CCCNC(=N)N)NC(=O)[C@H](CCSC)NC(=O)[C@@H](NC(=O)[C@@H](N)CCCNC(=N)N)[C@@H](C)CC)[C@@H](C)CC)[C@@H](C)CC)NC(=O)[C@H](CCCNC(=N)N)NC(=O)[C@H](C)NC(=O)[C@H](CC(C)C)NC(=O)[C@H](CCCCN)NC(=O)[C@H](CC(C)C)NC(=O)[C@@H](NC(=O)[C@H](CCCNC(=N)N)NC(=O)[C@H](CC(C)C)NC(=O)[C@@H](NC(=O)[C@H](CCCNC(=N)N)NC(=O)[C@H](CCSC)NC(=O)[C@@H](NC(=O)[C@@H](N)CCCNC(=N)N)[C@@H](C)CC)[C@@H](C)CC)[C@@H](C)CC)C(=O)N[C@@H](CSSC[C@H](NC(=O)[C@H](CCCCNC(=O)[C@H](CCCCNC(=O)CCOCCOCCOCCOCCOCCOCCNC(=O)[C@H](CCCCN)NC(=O)[C@H](CC(C)C)NC(=O)[C@H](Cc1ccc(O)cc1)NC(=O)[C@@H](NC(=O)[C@H](CCSC)NC(=O)[C@H](C)NC(=O)CNC(=O)[C@H](Cc1c[nH]cn1)NC(=O)[C@@H](N)CCCNC(=N)N)C(C)C)NC(=O)CCOCCOCCOCCOCCOCCOCCNC(=O)[C@H](CCCCN)NC(=O)[C@H](CC(C)C)NC(=O)[C@H](Cc1ccc(O)cc1)NC(=O)[C@@H](NC(=O)[C@H](CCSC)NC(=O)[C@H](C)NC(=O)CNC(=O)[C@H](Cc1c[nH]cn1)NC(=O)[C@@H](N)CCCNC(=N)N)C(C)C)NC(=O)[C@H](CCCCNC(=O)CCOCCOCCOCCOCCOCCOCCNC(=O)[C@H](CCCCN)NC(=O)[C@H](CC(C)C)NC(=O)[C@H](Cc1ccc(O)cc1)NC(=O)[C@@H](NC(=O)[C@H](CCSC)NC(=O)[C@H](C)NC(=O)CNC(=O)[C@H](Cc1c[nH]cn1)NC(=O)[C@@H](N)CCCNC(=N)N)C(C)C)NC(=O)CCOCCOCCOCCOCCOCCOCCNC(=O)[C@H](CCCCN)NC(=O)[C@H](CC(C)C)NC(=O)[C@H](Cc1ccc(O)cc1)NC(=O)[C@@H](NC(=O)[C@H](CCSC)NC(=O)[C@H](C)NC(=O)CNC(=O)[C@H](Cc1c[nH]cn1)NC(=O)[C@@H](N)CCCNC(=N)N)C(C)C)C(=O)O)C(=O)O` [AGM-330t-tCPP], for which the half-inhibitory concentration (IC50) with HCT-116 is 3.79 µM; in the assay on MCF-7, 3.8 µM.

B1: AGM-330 (peptide)
peptide: RHGAMVYLK
modifications: not fully specified (C-terminus); also: MAP dendrimer (dimer/tetramer) on lysine core with C-terminal Cys
notes: The form used in SPR (monomer, dimer or tetramer); also called AGM-330 peptide; AGM peptide ligand
What is called Kd is the concentration at which binding is half-saturated. On to B1, for which the Kd in assay [2] was 0.0577 µM; in assay [3] it was ~0.0577 µM.

The values are drawn from patent US20250032629A1, “NOVEL NUCLEOLIN-BINDING PEPTIDE AND USE THEREOF” (ANYGEN CO., LTD., priority 2020, published 2025).
